The assay addresses human mOR (Homo sapiens (Human), UniProt P35372). Kind of assay: cell-based. Here is the method:
CHO Tag-lite human mOR stable cell line from Cisbio (NCBI accession number: NM_000914.3, Bedford, Mass.) were seeded and grown to approximately 80% confluence in Ham F-12 with 10% FBS, 50 U/ml penicillin, 50 μg/ml streptomycin, 2 mM Hepes, and 1 mg/ml geneticin (Invitrogen, Carlsbad, Calif.). Cells were then harvested using accutase (Corning. Coming, N.Y.), centrifuged at 1300 RPM for 5 min, and plated at 5000 cells per 5 μL per well in a 5× dilution of stimulation buffer consisting of the HTRF cAMP Gi kit, water and IBMX at 0.5 mM (Cisbio, Bedford, Mass.) in white HTRF low volume 384 well plates (Cisbio, Bedford, Mass.). Plates were then incubated at 37° C. in 5% CO2 for 10 minutes. For the agonist assay, forskolin was added to a final concentration of 4 μM. […] Test compounds were dissolved in DMSO and water, and then serially diluted to working concentrations such that the concentration of DMSO was less than 0.1%. Diluted test compounds were added at 2.5 μL per well, and plates were incubated at 37° C., and 5% CO2 for 15 minutes, and then at room temperature for 15 minutes. Next 5 μl/well of cAMP Eu-cryptate and 5 μl/well of anti-cAMP-d2 (both diluted 1:20 in lysis buffer) were added, and plates were incubated at room temperature for 1 hour. Following incubation, plates were read in a Synergy Neo2 multi-mode reader (Biotek, Winooski, Vt.). […] For the agonist assay, data was normalized using the maximal DAMGO response. Measurements were performed in triplicate and the dose response was fit using nonlinear regression.

In patent publication US11634396B2 (priority 2021, dated 2023) one finds IC50 data, which are given here for 25 molecules.

The IC50 is the concentration that inhibits the measured activity by half.

Each structure is given as a SMILES string. Where two headings read alike, the source gives them in different places.

human mOR, sequence (P35372 whole entry): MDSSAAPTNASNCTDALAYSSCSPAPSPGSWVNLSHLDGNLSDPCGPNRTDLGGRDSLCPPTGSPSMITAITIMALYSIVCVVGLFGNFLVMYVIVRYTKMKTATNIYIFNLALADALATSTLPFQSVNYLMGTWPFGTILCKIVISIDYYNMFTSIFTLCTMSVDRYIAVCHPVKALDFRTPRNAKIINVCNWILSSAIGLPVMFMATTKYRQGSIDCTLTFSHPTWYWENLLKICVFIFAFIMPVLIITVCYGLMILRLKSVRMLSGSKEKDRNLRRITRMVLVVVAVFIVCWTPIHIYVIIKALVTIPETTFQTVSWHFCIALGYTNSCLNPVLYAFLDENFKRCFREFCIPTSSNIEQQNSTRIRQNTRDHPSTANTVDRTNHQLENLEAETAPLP

On to `CN(C)[C@H](CNC(=O)CC(c1ccncc1)C1(C(F)(F)F)CC1)Cc1ccc(C(N)=O)cc1Cl` (stereo partly drawn) [Compound 26, 3-chloro-4-[(2S)-2-(dimethylamino)-3-[3-(pyridin-4-yl)-3-[1-(trifluoromethyl)cyclopropyl]propanamido]propyl]benzamide], for which the concentration for half-maximal inhibition (IC50) was below 300 nM.
Same read-out and setting: in the case of `CN(C)[C@H](CNC(=O)CC(c1ncccn1)C1(C(F)(F)F)CC1)Cc1ccc(C(N)=O)cc1Cl` (stereo partly drawn) [Compound 27, 3-chloro-4-((2S)-2-(dimethylamino)-3-(3-(pyrimidin-2-yl)-3-(1-(trifluoromethyl)cyclopropyl)propanamido)propyl)benzamide] it was below 300 nM.
Still for that read-out and setting: in the case of `CN(C)c1ncc(C(CC(=O)NC[C@H](Cc2ccc(C(N)=O)cc2Cl)N(C)C)C2(C(F)(F)F)CC2)cn1` (stereo partly drawn) [Compound 29, 3-chloro-4-[(2S)-2-(dimethylamino)-3-{3-[2-(dimethylamino)pyrimidin-5-yl]-3-[1-(trifluoromethyl)cyclopropyl]propanamido}propyl]benzamide] it was below 300 nM; in that of `CN(C)[C@H](CNC(=O)CC(c1cncnc1)C1(C(F)(F)F)CC1)Cc1ccc(C(N)=O)cc1Cl` (stereo partly drawn) [Compound 30, 3-chloro-4-[(2S)-2-(dimethylamino)-3-[3-(pyrimidin-5-yl)-3-[1-(trifluoromethyl)cyclopropyl]propanamido]propyl]benzamide], below 300 nM.
On the same count and under the same terms, in the case of `CN(C)[C@H](CNC(=O)CC(c1ncc(Cl)cn1)C1(C(F)(F)F)CC1)Cc1ccc(C(N)=O)cc1Cl` (stereo partly drawn) [Compound 31, 3-chloro-4-[(2S)-3-[3-(5-chloropyrimidin-2-yl)-3-[1-(trifluoromethyl)cyclopropyl]propanamido]-2-(dimethylamino)propyl]benzamide] it was below 300 nM.
Turning to `Cc1ncc([C@@H](CC(=O)NC[C@H](Cc2ccc(C(N)=O)c(F)c2C)N(C)C)C2CC2)cn1` [Compound 42, 4-((S)-3-((S)-3-cyclopropyl-3-(2-methylpyrimidin-S-yl)propanamido)-2-(dimethylamino)propyl)-2-fluoro-3-methylbenzamide], the half-inhibitory concentration (IC50) was above 3000 nM.
Same read-out and setting: in the case of `Cc1ncc([C@@H](CC(=O)NC[C@H](Cc2ccc(C(N)=O)c(F)c2C)N(C)C)C2(C(F)(F)F)CC2)s1` [Compound 43, 4-((S)-2-(dimethylamino)-3-((S)-3-(2-methylthiazol-5-yl)-3-(1-(trifluoromethyl)cyclopropyl)propanamido)propyl)-2-fluoro-3-methylbenzamide] it was below 300 nM; in that of `Cc1ncc([C@@H](CC(=O)NC[C@H](Cc2ccc(C(N)=O)c(F)c2C)N(C)C)C2(C(F)(F)F)CC2)cn1` [Compound 44, 4-((S)-2-(dimethylamino)-3-((R)-3-(2-methylpyrimidin-5-yl)-3-(1-(trifluoromethyl)cyclopropyl)propanamido)propyl)-2-fluoro-3-methylbenzamide], below 300 nM; in that of `Cc1c(C[C@@H](CNC(=O)C[C@@H](c2cncc(F)c2)C(C)(C)C)N(C)C)ccc(C(N)=O)c1F` [Compound 45, 4-((S)-2-(dimethylamino)-3-((R)-3-(5-fluoropyridin-3-yl)-4,4-dimethylpentanamido)propyl)-2-fluoro-3-methylbenzamide], below 300 nM.
The same measure, in the same setting: in the case of `Cc1ccc([C@@H](CC(=O)NC[C@H](Cc2ccc(C(N)=O)c(F)c2C)N(C)C)C2(C(F)(F)F)CC2)cn1` [Compound 46, 4-((S)-2-(dimethylamino)-3-((R)-3-(6-methylpyridin-3-yl)-3-(1-(trifluoromethyl)cyclopropyl)propanamido)propyl)-2-fluoro-3-methylbenzamide] it was below 300 nM; in that of `Cc1ccc([C@@H](CC(=O)NC[C@H](Cc2cc(F)c(C(N)=O)c(F)c2)N(C)C)C2(C(F)(F)F)CC2)cn1` [Compound 47, 4-((S)-2-(dimethylamino)-3-((R)-3-(6-methylpyridin-3-yl)-3-(1-(trifluoromethyl)cyclopropyl)propanamido)propyl)-26-difluorobenzamide], below 300 nM; in that of `Cc1ncc([C@@H](CC(=O)NC[C@H](Cc2cc(F)c(C(N)=O)c(F)c2)N(C)C)C2(C(F)(F)F)CC2)cn1` [Compound 48, 4-((S)-2-(dimethylamino)-3-((R)-3-(2-methylpyrimidin-5-yl)-3-(1-(trifluoromethyl)cyclopropyl)propanamido)propyl)-2,6-difluorobenzamide], above 3000 nM.
Consider `CN(C)[C@H](CNC(=O)CC(c1cccnc1)C1(C(F)(F)F)CC1)Cc1cc(F)c(C(N)=O)c(F)c1` (stereo partly drawn) [Compound 50, 4-[(2S)-2-(dimethylamino)-3-[3-(pyridin-3-yl)-3-[1-(trifluoromethyl)cyclopropyl]propanamido]propyl]-2,6-difluorobenzamide], for which the IC50 was above 3000 nM.
Same read-out and setting: in the case of `CN(C)[C@H](CNC(=O)C[C@H](c1ccoc1)C1(C(F)(F)F)CC1)Cc1ccc(C(N)=O)c(F)c1` [Compound 51, 4-((S)-2-(dimethylamino)-3-((R)-3-(furan-3-yl)-3-(1-(trifluoromethyl)cyclopropyl)propanamido)propyl)-2-fluorobenzamide] it was below 300 nM.
Regarding `Cc1cc([C@@H](CC(=O)NC[C@H](Cc2ccc(C(N)=O)c(F)c2)N(C)C)C2(C(F)(F)F)CC2)cs1` [Compound 52, 4-((S)-2-(dimethylamino)-3-((S)-3-(5-methylthiophen-3-yl)-3-(1-(trifluoromethyl)cyclopropyl)propanamido)propyl)-2-fluorobenzamide], the half-maximal inhibitory concentration (IC50) was below 300 nM.
As to `Cc1ccc([C@@H](CC(=O)NC[C@H](Cc2ccc(C(N)=O)c(F)c2)N(C)C)C2(C(F)(F)F)CC2)s1` [Compound 53, 4-((S)-2-(dimethylamino)-3-((S)-3-(5-methylthiophen-2-yl)-3-(1-(trifluoromethyl)cyclopropyl)propanamido)propyl)-2-fluorobenzamide], the IC50 was below 300 nM.
Regarding `CN(C)[C@H](CNC(=O)C[C@H](c1ccsc1)C1(C(F)(F)F)CC1)Cc1ccc(C(N)=O)c(F)c1` [Compound 54, 4-((S)-2-(dimethylamino)-3-((S)-3-(thiophen-3-yl)-3-(1-(trifluoromethyl)cyclopropyl)propanamido)propyl)-2-fluorobenzamide], the half-maximal inhibitory concentration (IC50) was above 3000 nM.
Same read-out and setting: in the case of `CN(C)[C@H](CNC(=O)C[C@H](c1cncs1)C1(C(F)(F)F)CC1)Cc1ccc(C(N)=O)c(F)c1` [Compound 55, 4-((S)-2-(dimethylamino)-3-((S)-3-(thiazol-5-yl)-3-(1-(trifluoromethyl)cyclopropyl)propanamido)propyl)-2-fluorobenzamide] it was below 300 nM.
Regarding `Cc1cnc([C@@H](CC(=O)NC[C@H](Cc2ccc(C(N)=O)c(F)c2)N(C)C)C2(C(F)(F)F)CC2)s1` [Compound 56, 4-((S)-2-(dimethylamino)-3-((S)-3-(5-methylthiazol-2-yl)-3-(1-(trifluoromethyl)cyclopropyl)propanamido)propyl)-2-fluorobenzamide], the IC50 (read-out: mOR cAMP Antagonist Assay IC50) was 300 to 3000 nM.
For the molecule `Cc1cnc([C@@H](CC(=O)NC[C@H](Cc2ccc(C(N)=O)c(F)c2)N(C)C)C2(C(F)(F)F)CC2)nc1` [Compound 57, 4-((S)-2-(dimethylamino)-3-((S)-3-(5-methylpyrimidin-2-yl)-3-(1-(trifluoromethyl)cyclopropyl)propanamido)propyl)-2-fluorobenzamide], the IC50 fell in the range of 300 to 3000 nM.
On the same count and under the same terms, in the case of `Cc1ncc([C@H](CC(=O)NC[C@H](Cc2ccc(C(N)=O)c(F)c2)N(C)C)C2(C(F)(F)F)CC2)s1` [Compound 58, 4-((S)-2-(dimethylamino)-3-((R)-3-(2-methylthiazol-5-yl)-3-(1-(trifluoromethyl)cyclopropyl)propanamido)propyl)-2-fluorobenzamide] it was above 3000 nM; in that of `Cc1ncc([C@@H](CC(=O)NC[C@H](Cc2ccc(C(N)=O)c(F)c2)N(C)C)C2(C(F)(F)F)CC2)s1` [Compound 59, 4-((S)-2-(dimethylamino)-3-((S)-3-(2-methylthiazol-5-yl)-3-(1-(trifluoromethyl)cyclopropyl)propanamido)propyl)-2-fluorobenzamide], below 300 nM.
As for `CC(C)C[C@H](CC(=O)NC[C@H](Cc1ccc(C(N)=O)c(F)c1)N(C)C)c1cccnc1` [Compound 60, 4-((S)-2-(dimethylamino)-3-((R)-5-methyl-3-(pyridin-3-yl)hexanamido)propyl)-2-fluorobenzamide], the IC50 (CHO Tag-lite human mOR stable cell line, forskolin 4 μM and DAMGO at EC90, read-out: mOR cAMP Antagonist Assay IC50) is below 300 nM.
For `CN(C)[C@H](CNC(=O)C[C@H](c1ccncc1F)C1(C(F)(F)F)CC1)Cc1ccc(C(N)=O)c(F)c1` [Compound 61, 4-((S)-2-(dimethylamino)-3-((R)-3-(3-fluoropyridin-4-yl)-3-(1-(trifluoromethyl)cyclopropyl)propanamido)propyl)-2-fluorobenzamide], the concentration for half-maximal inhibition (IC50) is above 3000 nM.
The same measure, in the same setting: in the case of `CN(C)[C@H](CNC(=O)C[C@H](CC1CC1)c1ccncc1)Cc1ccc(C(N)=O)c(F)c1` [Compound 62, 4-((S)-3-((S)-4-cyclopropyl-3-(pyridin-4-yl)butanamido)-2-(dimethylamino)propyl)-2-fluorobenzamide] it was below 300 nM.
